Assay [1] can be described thus: Antiproliferative activity against human MEpiC cells after 48 hrs by MTT assay. It counts as cell-based.
For assay [2], the system named is MCF7. The assay is described as follows: Antiproliferative activity against human MCF7 cells after 48 hrs by MTT assay. The conditions noted are these: MCF7, 48 h. Type of assay: functional, cell-based. Background: Tetrazolium dyes change colour on reduction, which living cells bring about.
The subject of assay [3] is MDA-MB-231. The assay is described as follows: Antiproliferative activity against human MDA-MB-231 cells after 48 hrs by MTT assay. It counts as functional, cell-based. The conditions noted are these: MDA-MB-231, 48 h.

As a reminder, the pIC50 is the negative decadic logarithm of the IC50, by convention in mol/L. Read a high pIC50 as a small IC50.

Each structure is given as a SMILES string. pIC50: −log10 of the molar value. Where a name gives a salt, the structure may show the parent alone.

`COc1ccc(OC(=O)C#Cc2ccccc2)cc1`: the pIC50 in assay [1] is 4.72; in assay [2] it was 4.28; in assay [3], 5.18.

As to `O=C1C=CC2(C=C1)OC(=O)C(I)=C2c1ccccc1`, the pIC50 in assay [1] was 5.20; in assay [2] it was 4.38; in assay [3], 5.12.

For `O=C1C=CC2(C=C1)OC(=O)C(c1cc3ccccc3s1)=C2c1ccccc1`, the results for the pIC50 in assay [1], in assay [2] and in assay [3] were 4.97, 5.23 and 4.48, respectively.

As for `O=C1C=CC2(C=C1)OC(=O)C(c1ccc(F)cc1)=C2c1ccccc1`, the pIC50 in assay [1] was 4.96; in assay [2], 5.20; in assay [3], 4.41.

For `O=C1C=CC2(C=C1)OC(=O)C(c1cc3ccccc3o1)=C2c1ccccc1`, the results for the pIC50 in assay [1], in assay [2] and in assay [3] were 4.18, 5.24 and 4.67, respectively.

Regarding `O=C1C=CC2(C=C1)OC(=O)C(c1ccc(O)cc1)=C2c1ccccc1`, the figures for the pIC50 in assay [1], in assay [2] and in assay [3] were 4.78, 5.22 and 4.21, respectively.

As for `O=C1C=CC2(C=C1)OC(=O)C(c1ccc([N+](=O)[O-])cc1)=C2c1ccccc1`, the pIC50 in assay [1] is 4.18; in assay [2], 5.22; in assay [3], 4.72.

On to `COc1ccc(C2=C(c3ccccc3)C3(C=CC(=O)C=C3)OC2=O)cc1`, for which the pIC50 in assay [1] is 4.93; in assay [2] it was 5.23; in assay [3] it was 4.19.

For the compound `O=C1C=CC2(C=C1)OC(=O)C(c1ccc(CO)cc1)=C2c1ccccc1`, the pIC50 in assay [1] was 5.41; in assay [2], 5.24; in assay [3] it was 5.05.

Consider `COc1cc(C2=C(c3ccccc3)C3(C=CC(=O)C=C3)OC2=O)cc(OC)c1OC`, for which the pIC50 in assay [1] was 5.18; in assay [2], 5.24; in assay [3] it was 5.01.

As to `COc1ccc(F)cc1C1=C(c2ccccc2)C2(C=CC(=O)C=C2)OC1=O`, the figures for the pIC50 in assay [1], in assay [2] and in assay [3] were 4.87, 5.24 and 5.00, respectively.

For `COc1c(Br)cc(C)cc1C1=C(c2ccccc2)C2(C=CC(=O)C=C2)OC1=O`, the pIC50 in assay [1] was 4.83; in assay [2], 5.23; in assay [3], 5.02.

`O=C1C=CC2(C=C1)OC(=O)C(c1ccc3c(c1)OCO3)=C2c1ccccc1`: the pIC50 is 4.47 in assay [1], 5.24 in assay [2] and 5.04 in assay [3].

Regarding `N#Cc1ccc(C2=C(c3ccccc3)C3(C=CC(=O)C=C3)OC2=O)cc1`, the values for the pIC50 in assay [1], in assay [2] and in assay [3] were 5.05, 4.72 and 5.06, respectively.

Regarding `O=C1C=CC2(C=C1)OC(=O)C(c1ccc(C(=O)O)cc1)=C2c1ccccc1`, the pIC50 was 4.98 in assay [1], 5.23 in assay [2] and 4.82 in assay [3].

Take `O=Cc1ccc(C2=C(c3ccccc3)C3(C=CC(=O)C=C3)OC2=O)s1`: the values for the pIC50 in assay [1], in assay [2] and in assay [3] were 5.15, 5.21 and 4.70, respectively.

Regarding `O=C1C=CC2(C=C1)OC(=O)C=C2c1ccccc1`, the pIC50 was 5.12 in assay [1], 5.19 in assay [2] and 4.80 in assay [3].

Turning to `COc1cccc2c1C(=O)c1c(O)c3c(c(O)c1C2=O)C[C@@](O)(C(=O)CO)C[C@@H]3O[C@H]1C[C@H](N)[C@H](O)[C@H](C)O1` [DOXORUBICIN HYDROCHLORIDE], the negative logarithm of the IC50 (pIC50) in assay [3] is 5.39.
